# Source: patent US20180110762A1, “Compositions Methods for Treating Chronic Kidney Disease” (Merck Sharp & Dohme Corp, priority 2015, published 2018)
# Key:
# [1] = target: T1, Human recombinant integrin α5β1 (Homo sapiens, UniProt P05556+P08648); test: Solid phase receptor assay, α5β1 (fibronectin); assay type: binding
# T1 construct: purchased R&D Systems
# Experimental: The assay was performed according to the method described in International Patent Publication WO 2014/015054 A1 “Beta Amino Acid Derivatives As Integrin Antagonists.” Briefly, 96-well plates were coated overnight with purified fibronectin or vitronectin (R&D Systems) in TBS+ buffer (25 mM Tris 7.4, 137 mM NaCl, 2.7 mM KCl, 1 mM CaCl2, 1 mM MgCl2, 1 mM MnCl2). Compound A was added at different concentrations to recombinant human integrin proteins (R&D Systems) reconstituted in TBS+/0.1% bovine serum albumin, and 50 μL of this mixture were added to the empty wells of the coated plate and incubated for 1-2 hours. After 3 washes, 50 μL of biotinylated antibody (R&D Systems) in TBS+/0.1% bovine serum albumin were added. The procedure continued with three more washes, addition of 50 μL of streptavidin-conjugated horseradish peroxidase (R&D Systems), and incubation for 20 minutes. After 3 more washes, 50 μL of tetramethylbenzidine (TMB) substrate (SIGMA) were added and plates were read after 20 min by colorimetric detection at 650 nm wavelength in an EnVision Multilabel Plate Reader (Perkin Elmer). The concentrations of fibronectin used were: 2 μg/mL for the α5β1 assay and 5 μg/mL for the αvβ1 assay. The concentrations of vitronectin used were: 1 μg/mL for the αvβ3 assay and 0.25 μg/mL for the αvβ5 assay. […]
# [2] = target: T2, Human recombinant integrin αvβ3 (Homo sapiens, UniProt P05106+P06756); test: Thermal shift assay (differential scanning fluorimetry), αvβ3; assay type: binding; conditions: αvβ3, 20 μM Compound A
# T2 construct: purchased R&D Systems
# Experimental: Differential scanning fluorimetry was performed on a LightCycler 480 II, real-time PCR instrument (Roche Diagnostics). Human recombinant integrins from R&D Systems (αvβ1, αvβ3 and α5β1) were reconstituted at a concentration of […] in assay buffer (20 mM HEPES, pH=7.3, 100 mM NaCl, 1 mM MgCl2, 1 mM MnCl2) and diluted in assay buffer with Sypro orange (SIGMA) to a final concentration of 400 nM integrin and 5× Sypro orange. A volume of 4.9 μL of this mixture of protein and dye was transferred to a 384-well plate and 100 nL of DMSO or Compound A, dissolved in DMSO, were added using an Echo 555 instrument (Labcyte). The final concentration of Compound A in the assay was 20 μM. After mixing, the assay plate was sealed, spun at 1,000×g for two minutes, and subsequently heated from 25 to 99° C. over the course of 31 min in the LightCycler 480 II instrument. Fluorescence intensity was measured using excitation/emission wavelengths of 465 and 580 nm, respectively. Changes in protein thermal stability (ΔTm) upon compound binding were analyzed by using LightCycler 480 (software provided by the manufacturer).
# T2 sequence (P06756 31-992 limits assumed): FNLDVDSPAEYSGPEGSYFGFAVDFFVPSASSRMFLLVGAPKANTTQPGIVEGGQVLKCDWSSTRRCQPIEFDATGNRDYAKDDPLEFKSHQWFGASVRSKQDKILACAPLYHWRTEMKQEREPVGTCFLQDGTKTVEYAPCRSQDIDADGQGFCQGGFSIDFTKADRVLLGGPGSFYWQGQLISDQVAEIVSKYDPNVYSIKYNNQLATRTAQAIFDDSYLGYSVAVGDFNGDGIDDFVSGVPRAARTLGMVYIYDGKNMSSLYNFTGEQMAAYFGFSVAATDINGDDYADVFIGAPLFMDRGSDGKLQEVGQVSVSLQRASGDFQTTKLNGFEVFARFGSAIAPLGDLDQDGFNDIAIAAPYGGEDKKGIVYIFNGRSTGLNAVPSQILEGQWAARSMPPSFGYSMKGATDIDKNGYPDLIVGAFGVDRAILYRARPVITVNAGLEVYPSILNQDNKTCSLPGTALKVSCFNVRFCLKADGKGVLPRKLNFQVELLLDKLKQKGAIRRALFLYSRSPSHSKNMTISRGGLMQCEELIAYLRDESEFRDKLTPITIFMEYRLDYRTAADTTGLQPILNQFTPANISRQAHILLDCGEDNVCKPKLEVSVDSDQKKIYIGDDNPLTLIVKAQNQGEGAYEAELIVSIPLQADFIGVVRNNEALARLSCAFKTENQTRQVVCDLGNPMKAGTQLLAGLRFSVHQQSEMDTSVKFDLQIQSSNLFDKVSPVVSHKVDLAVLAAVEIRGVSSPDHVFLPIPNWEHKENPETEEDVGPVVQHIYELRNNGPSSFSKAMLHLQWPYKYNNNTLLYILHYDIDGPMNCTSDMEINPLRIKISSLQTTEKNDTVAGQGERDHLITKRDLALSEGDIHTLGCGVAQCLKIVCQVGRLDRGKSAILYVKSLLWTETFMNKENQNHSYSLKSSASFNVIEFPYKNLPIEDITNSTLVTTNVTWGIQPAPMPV
# T2 sequence (P05106 27-718 limits assumed): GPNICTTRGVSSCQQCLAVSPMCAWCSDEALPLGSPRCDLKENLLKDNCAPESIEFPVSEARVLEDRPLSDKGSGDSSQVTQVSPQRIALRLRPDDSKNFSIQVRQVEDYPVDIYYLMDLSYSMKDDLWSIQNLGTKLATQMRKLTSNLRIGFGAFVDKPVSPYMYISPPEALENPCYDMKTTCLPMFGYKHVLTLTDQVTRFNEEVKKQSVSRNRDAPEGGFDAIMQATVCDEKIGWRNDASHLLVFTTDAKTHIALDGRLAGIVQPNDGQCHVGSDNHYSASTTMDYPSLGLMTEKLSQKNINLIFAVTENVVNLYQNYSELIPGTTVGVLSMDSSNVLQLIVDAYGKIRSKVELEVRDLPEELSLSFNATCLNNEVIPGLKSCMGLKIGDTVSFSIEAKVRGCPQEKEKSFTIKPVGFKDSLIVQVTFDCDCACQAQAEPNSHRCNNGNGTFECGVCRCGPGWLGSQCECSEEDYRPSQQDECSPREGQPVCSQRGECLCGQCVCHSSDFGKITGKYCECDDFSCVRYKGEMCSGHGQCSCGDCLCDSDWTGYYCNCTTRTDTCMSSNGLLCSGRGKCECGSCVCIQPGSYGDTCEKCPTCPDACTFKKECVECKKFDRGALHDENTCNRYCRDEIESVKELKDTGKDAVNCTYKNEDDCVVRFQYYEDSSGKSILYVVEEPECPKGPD
# T1 sequence (P08648 42-995 limits assumed): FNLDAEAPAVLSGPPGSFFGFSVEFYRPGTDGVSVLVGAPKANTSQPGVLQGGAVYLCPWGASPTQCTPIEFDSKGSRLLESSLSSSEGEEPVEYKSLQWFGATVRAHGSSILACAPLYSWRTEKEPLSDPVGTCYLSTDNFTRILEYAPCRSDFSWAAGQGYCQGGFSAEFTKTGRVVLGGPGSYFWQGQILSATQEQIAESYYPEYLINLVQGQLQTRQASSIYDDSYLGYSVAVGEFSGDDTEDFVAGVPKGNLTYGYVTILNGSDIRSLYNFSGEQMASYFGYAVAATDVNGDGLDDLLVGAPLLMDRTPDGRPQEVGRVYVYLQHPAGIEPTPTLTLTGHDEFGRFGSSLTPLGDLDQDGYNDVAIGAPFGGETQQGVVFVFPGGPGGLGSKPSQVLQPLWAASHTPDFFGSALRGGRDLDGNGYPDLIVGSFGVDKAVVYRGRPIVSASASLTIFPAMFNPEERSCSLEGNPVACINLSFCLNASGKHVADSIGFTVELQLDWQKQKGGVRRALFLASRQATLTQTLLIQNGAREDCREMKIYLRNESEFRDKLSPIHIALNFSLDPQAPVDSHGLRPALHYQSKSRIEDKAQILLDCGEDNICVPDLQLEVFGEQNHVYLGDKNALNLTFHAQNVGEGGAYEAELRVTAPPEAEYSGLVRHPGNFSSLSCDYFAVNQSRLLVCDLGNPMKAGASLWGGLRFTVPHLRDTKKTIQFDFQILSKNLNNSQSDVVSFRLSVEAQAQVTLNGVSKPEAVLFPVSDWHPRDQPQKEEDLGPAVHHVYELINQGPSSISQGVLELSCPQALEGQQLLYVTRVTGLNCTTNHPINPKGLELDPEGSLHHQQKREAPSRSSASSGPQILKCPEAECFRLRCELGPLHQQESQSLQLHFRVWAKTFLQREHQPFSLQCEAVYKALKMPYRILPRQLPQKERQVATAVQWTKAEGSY
# T1 sequence (P05556 21-728 limits assumed): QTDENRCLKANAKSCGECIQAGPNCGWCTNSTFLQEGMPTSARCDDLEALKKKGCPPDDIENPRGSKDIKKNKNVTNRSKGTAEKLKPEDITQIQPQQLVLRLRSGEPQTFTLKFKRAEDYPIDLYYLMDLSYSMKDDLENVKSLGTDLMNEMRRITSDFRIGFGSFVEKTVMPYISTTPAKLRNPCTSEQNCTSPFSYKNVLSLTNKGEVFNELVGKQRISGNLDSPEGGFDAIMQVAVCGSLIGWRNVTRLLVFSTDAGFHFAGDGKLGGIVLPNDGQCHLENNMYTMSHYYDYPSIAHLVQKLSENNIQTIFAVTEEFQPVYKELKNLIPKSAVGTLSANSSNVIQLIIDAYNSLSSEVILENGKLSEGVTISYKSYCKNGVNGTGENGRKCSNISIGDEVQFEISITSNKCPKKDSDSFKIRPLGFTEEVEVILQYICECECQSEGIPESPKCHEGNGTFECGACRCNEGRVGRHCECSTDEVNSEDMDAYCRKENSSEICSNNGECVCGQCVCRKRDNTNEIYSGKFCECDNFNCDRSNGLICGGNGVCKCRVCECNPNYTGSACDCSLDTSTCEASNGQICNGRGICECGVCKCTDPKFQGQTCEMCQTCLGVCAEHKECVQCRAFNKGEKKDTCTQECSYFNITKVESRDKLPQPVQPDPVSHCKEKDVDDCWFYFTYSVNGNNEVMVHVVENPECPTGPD
compound,measurement,setting,value
"COc1ccc([C@H](CC(=O)O)N2CCN(CCCc3ccc4c(n3)NCCC4)C2=O)cn1 [Compound A, 3-{2-Oxo-3-[3-(5,6,7,8-tetrahydro-[1,8]naphthyridin-2-yl)-propyl]imidazolidin-1-yl}-3 (S)-(6-methoxy-pyridin-3-yl)-propionic acid]",IC50,"[1]; α5β1, first of two experiments",4.9 nM
same,IC50,"[1]; α5β1, second of two experiments",19.6 nM
same,ΔTm at 20 µM,[2]; first of two experiments,21.5 °C
same,ΔTm at 20 µM,[2]; second of two experiments,16.4 °C
